± gives the expanded uncertainty stated by the source.
Assays:
[1] = 100 kPa, Liquid; for electrical conductivity: Alternating current cell with electrodes; for viscosity: Capillary tube (Ostwald / Ubbelohde) method; for mass density: Vibrating tube method
[2] = xn = mol fraction of the nth substance listed; conditions: 100 kPa, Liquid, x2 = 0; for viscosity: Capillary tube (Ostwald / Ubbelohde) method; for mass density: Vibrating tube method

Cn1cc[n+](C)c1.O=S(=O)([N-]S(=O)(=O)C(F)(F)F)C(F)(F)F [1,3-dimethylimidazolium bis((trifluoromethyl)sulfonyl)amide]
[1]
Conditions | electrical conductivity [S/m] | mass density [kg/m3] | viscosity [mPa·s]
298.15 K | 0.774 ± 0.023 | 1575.42 ± 4.7 | 39.43 ± 1.6
303.15 K | 0.915 ± 0.027 | 1570.25 ± 4.7 | 32.51 ± 1.3
308.15 K | 1.06 ± 0.032 | 1565.01 ± 4.6 | 27.47 ± 1.1
313.15 K | 1.2 ± 0.036 | 1559.73 ± 4.6 | 23.43 ± 0.95
318.15 K | 1.35 ± 0.041 | 1554.49 ± 4.6 | 20.25 ± 0.82
323.15 K | 1.51 ± 0.045 | 1549.34 ± 4.6 | 17.72 ± 0.72

O=C1CCCO1 [γ-butyrolactone] + Cn1cc[n+](C)c1.O=S(=O)([N-]S(=O)(=O)C(F)(F)F)C(F)(F)F
[2]
Conditions | mass density [kg/m3] | viscosity [mPa·s]
298.15 K | 1124.59 ± 4.6 | 1.71 ± 0.07
303.15 K | 1119.68 ± 4.6 | 1.58 ± 0.06
308.15 K | 1114.78 ± 4.6 | 1.47 ± 0.06
313.15 K | 1109.87 ± 4.6 | 1.37 ± 0.06
318.15 K | 1104.96 ± 4.6 | 1.28 ± 0.05
323.15 K | 1100.05 ± 4.6 | 1.2 ± 0.05

Source: the NIST ThermoML archive (doi:10.1016/j.jct.2017.10.004)
